Measurements published in patent US9908868B2, “Isoindolinone compounds as GPR119 modulators for the treatment of diabetes, obesity, dyslipidemia and related disorders” (SANOFI, priority 2014, dated 2018).

Target: T1, human GPR119 (Homo sapiens, UniProt Q8TDV5)
T1 construct: expressed in transfected cells
T1 sequence (Q8TDV5 1-335): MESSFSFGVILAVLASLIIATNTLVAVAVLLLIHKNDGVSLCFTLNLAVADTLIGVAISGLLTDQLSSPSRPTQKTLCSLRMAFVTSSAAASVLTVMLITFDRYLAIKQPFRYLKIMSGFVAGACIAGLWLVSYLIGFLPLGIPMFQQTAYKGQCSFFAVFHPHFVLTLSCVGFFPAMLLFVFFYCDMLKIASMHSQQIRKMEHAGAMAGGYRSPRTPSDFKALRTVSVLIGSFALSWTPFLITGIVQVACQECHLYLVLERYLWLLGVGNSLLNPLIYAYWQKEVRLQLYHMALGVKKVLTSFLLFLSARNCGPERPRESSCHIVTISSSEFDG
Experiment: Functional cellular assay measuring GPR119-mediated cAMP release (HTRF) in HEK-293 cells stably expressing recombinant human GPR119
Type: cell-based
Details: cAMP response, cell line expressing human GPR119, 30 minutes at room temperature
Procedure: Functional Cellular Assays Measuring GPR119-Mediated cAMP Release
Compounds of the invention, which are agonists of GPR119, were characterized by functional assays measuring the cAMP response of HEK-293 cell lines stably expressing recombinant GPR119 from man, mouse or rat, or by using a hamster cell line HIT-T15 expressing GPR119 endogenously. The cAMP content was determined using a kit based on homogenous time-resolved fluorescence (HTRF) from Cisbio Corp. (cat. no. 62AM4PEC). For preparation, cells were split into T175 culture flasks and grown to near confluency in medium (DMEM/10% FCS for HEK-293 cells, and F-12K medium/10% horse serum/2.5% FCS for HIT-T15 cells, respectively). Medium was then removed and cells washed with PBS lacking calcium and magnesium ions, followed by proteinase treatment with accutase (Sigma-Aldrich, cat. no. A6964). Detached cells were washed and resuspended in assay buffer (1×HBSS; 20 mM HEPES, 0.1% BSA, 2 mM IBMX) and cellular density determined. They were then diluted to 400000 cells/mL and 25 μL-aliquots dispensed to the wells of 96-well plates. For measurement, 25 μL of test compound in assay buffer was added and incubated for 30 minutes at room temperature. After addition of HTRF reagents diluted in lysis buffer, the plates were incubated for 1 hour, followed by measuring the fluorescence ratio at 665 vs. 620 nm. Potency of the agonists was quantified by determining the concentrations that caused 50% of the maximal response/activation (EC50). See Table 7 for exemplary data obtained using the cell line expressing human GPR119.

EC50 [nM]	SMILES
242	COC(=O)CN1Cc2ccc(N3CC[C@@H](Oc4ccc(OC5CC5)nc4)C3=O)cc2C1=O [Example 1-22, methyl 2-[6-[(3R)-3-[[6-(cyclopropoxy)-3-pyridyl]oxy]-2-oxo-pyrrolidin-1-yl]-1-oxo-isoindolin-2-yl]acetate]
695	CN1Cc2c(F)cc(N3CC[C@@H](Oc4ccc(OCC5CC5)nc4)C3=O)cc2C1=O [Example 1-23, 6-[(3R)-3-[[6-(cyclopropylmethoxy)-3-pyridyl]oxy]-2-oxo-pyrrolidin-1-yl]-4-fluoro-2-methyl-isoindolin-1-one]
14300	O=C1[C@H](Oc2ccc(OCC3CC3)nc2)CCN1c1ccc2[nH][nH]c(=O)c2c1 [Example 1-24, 5-[(3R)-3-[[6-(cyclopropylmethoxy)-3-pyridyl]oxy]-2-oxo-pyrrolidin-1-yl]-1,2-dihydroindazol-3-one]
441	CN(C)C(=O)CN1Cc2ccc(N3CC[C@H](Oc4ccc(OCC5CC5)nc4)C3=O)cc2C1=O [Example 1-25, 2-[6-[(3S)-3-[[6-(cyclopropylmethoxy)-3-pyridyl]oxy]-2-oxo-pyrrolidin-1-yl]-1-oxo-isoindolin-2-yl]-N,N-dimethyl-acetamide]
14200	CN(C)C(=O)Cn1c(=O)c2cc(N3CC[C@H](Oc4ccc(OCC5CC5)nc4)C3=O)ccc2n1C [Example 1-26, 2-[5-[(3S)-3-[[6-(cyclopropylmethoxy)-3-pyridyl]oxy]-2-oxo-pyrrolidin-1-yl]-1-methyl-3-oxo-indazol-2-yl]-N,N-dimethyl-acetamide]
488	CN(C)C(=O)Cn1c(=O)c2cc(N3CC[C@@H](Oc4ccc(OCC5CC5)nc4)C3=O)ccc2n1C [Example 1-27, 2-[5-[(3R)-3-[[6-(cyclopropylmethoxy)-3-pyridyl]oxy]-2-oxo-pyrrolidin-1-yl]-1-methyl-3-oxo-indazol-2-yl]-N,N-dimethyl-acetamide]
976	CN(C)C(=O)CN1Cc2ncc(N3CC[C@@H](Oc4ccc(Oc5ccc(F)cc5)nc4)C3=O)cc2C1=O [Example 1-28, 2-[3-[(3R)-3-[[6-(4-fluorophenoxy)-3-pyridyl]oxy]-2-oxo-pyrrolidin-1-yl]-5-oxo-7H-pyrrolo[3,4-b]pyridin-6-yl]-N,N-dimethyl-acetamide]
15	CCOC(=O)CN1Cc2ccc(N3CC[C@@H](Oc4ccc(OCC5CC5)nc4)C3=O)cc2C1=O [Example 1-29, ethyl 2-[6-[(3R)-3-[[6-(cyclopropylmethoxy)-3-pyridyl]oxy]-2-oxo-pyrrolidin-1-yl]-1-oxo-isoindolin-2-yl]acetate]
> 100000	CCOc1ccc(O[C@@H]2CCN(c3cc(F)c4c(c3)C(=O)N(C(C)(C)C)C4)C2=O)cn1 [Example 1-30, 2-tert-butyl-6-[(3R)-3-[(6-ethoxy-3-pyridyl)oxy]-2-oxo-pyrrolidin-1-yl]-4-fluoro-isoindolin-1-one]
65	CCOc1ccc(O[C@@H]2CCN(c3cc(F)c4c(c3)C(=O)N(CC(=O)OC)C4)C2=O)cn1 [Example 1-31, methyl 2-[6-[(3R)-3-[(6-ethoxy-3-pyridyl)oxy]-2-oxo-pyrrolidin-1-yl]-4-fluoro-1-oxo-isoindolin-2-yl]acetate]
63	COC(=O)CN1Cc2ccc(N3CC[C@@H](Oc4ccc(OCCC5CC5)nc4)C3=O)cc2C1=O [Example 1-32, methyl 2-[6-[(3R)-3-[[6-(2-cyclopropylethoxy)-3-pyridyl]oxy]-2-oxo-pyrrolidin-1-yl]-1-oxo-isoindolin-2-yl]acetate]
8510	CC(C)(C)N1Cc2c(F)cc(N3CC[C@@H](Oc4ccc(OCC5CC5)nc4)C3=O)cc2C1=O [Example 1-33, 2-tert-butyl-6-[(3R)-3-[[6-(cyclopropylmethoxy)-3-pyridyl]oxy]-2-oxo-pyrrolidin-1-yl]-4-fluoro-isoindolin-1-one]
19	COC(=O)CN1Cc2c(F)cc(N3CC[C@@H](Oc4ccc(OCCC5CC5)nc4)C3=O)cc2C1=O [Example 1-35, methyl 2-[6-[(3R)-3-[[6-(2-cyclopropylethoxy)-3-pyridyl]oxy]-2-oxo-pyrrolidin-1-yl]-4-fluoro-1-oxo-isoindolin-2-yl]acetate]
142	O=C1c2cc(N3CC[C@@H](Oc4ccc(OCCC5CC5)nc4)C3=O)cc(F)c2CN1CCO [Example 1-36, 6-[(3R)-3-[[6-(2-cyclopropylethoxy)-3-pyridyl]oxy]-2-oxo-pyrrolidin-1-yl]-4-fluoro-2-(2-hydroxyethyl)isoindolin-1-one]
1040	CN(C)C(=O)CN1Cc2ccc(N3CC[C@@H](Oc4ccc(OC5CC5)nc4)C3=O)cc2C1=O [Example 1-37, 2-[6-[(3R)-3-[[6-(cyclopropoxy)-3-pyridyl]oxy]-2-oxo-pyrrolidin-1-yl]-1-oxo-isoindolin-2-yl]-N,N-dimethyl-acetamide]
35	CN(C)C(=O)CN1Cc2ccc(N3CC[C@@H](Oc4ccc(OCCC5CC5)nc4)C3=O)cc2C1=O [Example 1-38, 2-[6-[(3R)-3-[[6-(2-cyclopropylethoxy)-3-pyridyl]oxy]-2-oxo-pyrrolidin-1-yl]-1-oxo-isoindolin-2-yl]-N,N-dimethyl-acetamide]
60	CN(C)C(=O)CN1Cc2ccc(N3CC[C@@H](Oc4ccc(OCC5CC5)nc4)C3=O)cc2C1=O [Example 1-39, 2-[6-[(3R)-3-[[6-(cyclopropylmethoxy)-3-pyridyl]oxy]-2-oxo-pyrrolidin-1-yl]-1-oxo-isoindolin-2-yl]-N,N-dimethyl-acetamide]
44	COC(=O)CN1Cc2ccc(N3CC[C@@H](Oc4ccc(OCC5CC5)nc4)C3=O)cc2C1=O [Example 1-40, methyl 2-[6-[(3R)-3-[[6-(cyclopropylmethoxy)-3-pyridyl]oxy]-2-oxo-pyrrolidin-1-yl]-1-oxo-isoindolin-2-yl]acetate]
449	CN(C)C(=O)c1nc2ccc(N3CC[C@@H](Oc4ccc(OCC5CC5)nc4)C3=O)cc2c(=O)n1C [Example 1-43, 6-[(3R)-3-[[6-(cyclopropylmethoxy)-3-pyridyl]oxy]-2-oxo-pyrrolidin-1-yl]-N,N,3-trimethyl-4-oxo-quinazoline-2-carboxamide]
276	CN(C)C(=O)c1nc2ccc(N3CC[C@@H](Oc4ccc(OCC5CC5)nc4)C3=O)cc2c(=O)[nH]1 [Example 1-44, 6-[(3R)-3-[[6-(cyclopropylmethoxy)-3-pyridyl]oxy]-2-oxo-pyrrolidin-1-yl]-N,N-dimethyl-4-oxo-3H-quinazoline-2-carboxamide]
179	CN(CCO)C(=O)CN1Cc2ccc(N3CC[C@@H](Oc4ccc(OCC(F)(F)F)nc4)C3=O)cc2C1=O [Example 1-45, N-(2-hydroxyethyl)-N-methyl-2-[1-oxo-6-[(3R)-2-oxo-3-[[6-(2,2,2-trifluoroethoxy)-3-pyridyl]oxy]pyrrolidin-1-yl]isoindolin-2-yl]acetamide]
184	O=C(CN1Cc2ccc(N3CC[C@@H](Oc4ccc(OCC(F)(F)F)nc4)C3=O)cc2C1=O)N1CCC(O)CC1 [Example 1-46, 2-[2-(4-hydroxy-1-piperidyl)-2-oxo-ethyl]-6-[(3R)-2-oxo-3-[[6-(2,2,2-trifluoroethoxy)-3-pyridyl]oxy]pyrrolidin-1-yl]isoindolin-1-one]
218	O=C(CN1Cc2ccc(N3CC[C@@H](Oc4ccc(OCC(F)(F)F)nc4)C3=O)cc2C1=O)N1CC(O)C1 [Example 1-47, 2-[2-(3-hydroxyazetidin-1-yl)-2-oxo-ethyl]-6-[(3R)-2-oxo-3-[[6-(2,2,2-trifluoroethoxy)-3-pyridyl]oxy]pyrrolidin-1-yl]isoindolin-1-one]
73	CN(C)C(=O)CN1Cc2ccc(N3CC[C@@H](Oc4ccc(Oc5ccc(F)cc5F)nc4)C3=O)cc2C1=O [Example 1-48, 2-[6-[(3R)-3-[[6-(2,4-difluorophenoxy)-3-pyridyl]oxy]-2-oxo-pyrrolidin-1-yl]-1-oxo-isoindolin-2-yl]-N,N-dimethyl-acetamide]
106	CN(C)C(=O)CN1Cc2ncc(N3CC[C@@H](Oc4ccc(OCC(F)(F)F)nc4)C3=O)cc2C1=O [Example 1-49, N,N-dimethyl-2-[5-oxo-3-[(3R)-2-oxo-3-[[6-(2,2,2-trifluoroethoxy)-3-pyridyl]oxy]pyrrolidin-1-yl]-7H-pyrrolo[3,4-b]pyridin-6-yl]acetamide]
64	C[S+]([O-])CN1Cc2ccc(N3CC[C@@H](Oc4ccc(Oc5ccc(F)cc5)nc4)C3=O)cc2C1=O (stereo partly drawn) [Example 1-50, 6-[(3R)-3-[[6-(4-fluorophenoxy)-3-pyridyl]oxy]-2-oxo-pyrrolidin-1-yl]-2-(methylsulfinylmethyl)isoindolin-1-one]
57	CSCN1Cc2ccc(N3CC[C@@H](Oc4ccc(OCC5CC5)nc4)C3=O)cc2C1=O [Example 1-51, 6-[(3R)-3-[[6-(cyclopropylmethoxy)-3-pyridyl]oxy]-2-oxo-pyrrolidin-1-yl]-2-(methylsulfanylmethyl)isoindolin-1-one]
